Patent US12129255B2, “Pyrido [2,3-d]pyrimidine derivatives as inhibitors of human immunodeficiency virus replication” (VIIV HEALTHCARE UK (No. 5) LIMITED, priority 2019, dated 2024)

Key:
[1] = Subcutaneous pharmacokinetics in rat; assay type: in vivo, Wistar Han Rats
Experimental: Drug was formulated in 1% Kolliphor P188/1% PEG3350/3.5% Mannitol/94.5% Water and then administered to Wistar Han Rats as a subcutaneous injection at a dose of 20 mg/kg. Blood samples were collected at 0.167, 0.25, 0.5, 0.75, 1, 2, 3, 5, 7, 24, 48, 72, 96 h, and then every 3 days for up to 122 days. Blood samples were collected into K3EDTA tubes and centrifuged at 1500 to 2000×g to obtain plasma. Plasma samples were stored at −20° C. until analysis by LC-MS/MS.

[2] = IV pharmacokinetics in rat; assay type: in vivo, Wistar Han Rats; settings: Wistar Han, plasma, IV 1 mg/kg
Experimental: (§1) PK was investigated in male CD1 mice, Wistar Han Rats, Cynomolgus monkeys, and Beagle Dogs. Two groups of animals (N=3 per group) received test compound either as an intravenous (IV) dose (1 mg/kg) or by oral gavage (5 mg/kg solution and suspension). Drug was formulated in 90% PEG 400, 10% ethanol for IV administration and in 90% PEG400, 5% ethanol for PO administration. Blood samples were collected at 0.167, 0.25, 0.5, 0.75, 1, 2, 3, 5, 7, 24, 48, 72 and 96 h post dose for IV; 0.25, 0.5, 0.75, 1, 2, 3, 5, 7, 24, 48, 72 and 96 h post dose for oral. Blood samples were collected into K3EDTA tubes and centrifuged at 1500 to 2000×g to obtain plasma. Plasma samples were stored at −20° C. until analysis by LC-MS/MS. All in vivo samples were injected on an Exion LC 4500 Triple Quad™ LC-MS/MS system where the column was maintained at 60° C. and the flow rate was 0.6 mL/min. All LC-MS/MS analysis parameters are captured electronically in the raw data files. Rat IV, Dog IV, Monkey IV, and Monkey PO PK samples were analyzed by General Analysis Method A. Mouse IV, Mouse PO, and Dog PO PK samples were analyzed by General Analysis Method B. Rat PO samples were analyzed by General Analysis Method C.
(§2) The PK parameters were obtained by non-compartmental analysis of plasma concentration vs time data (Phoenix WinNonlin v8.1). The peak concentration (Cmax) and time for Cmax (Tmax) were recorded directly from experimental observations. The area under the curve from time zero to the last sampling time [AUC0-T] and the area under the curve from time zero to infinity [AUCINF] were calculated using the linear-log trapezoidal rule. The total plasma clearance (CLTp), steady-state volume of distribution (VSS), apparent elimination half-life (T-HALF), and mean residence time (MRT) were estimated after IV administration. Estimations of AUC and T-HALF were made using a minimum of three timepoints with quantifiable concentrations. The absolute oral bioavailability (F) was estimated as the ratio of dose-normalized AUC values following oral and IV doses.

CYP2B6 = assay: Cytochrome P450 (CYP2B6) induction in cryopreserved human hepatocytes, mRNA fold-change method; assay type: in vitro ADME; settings: hepatocytes from three donors, 0.12 to 30 μM, 48 hours; Example 1 all three donors, Example 60.2 2 of 3 donors
Experimental: Following the guidance of the FDA (“In Vitro Metabolism- and Transporter-Mediated Drug-Drug Interaction Studies Guidance for Industry”), the potential of Example 1 and Example 60.2 to induce CYP2B6 expression was tested using hepatocytes from the same three individual donors (rather than pooled donors), and changes in enzyme mRNA levels were evaluated using the “fold-change method”. In this test a fold-change in mRNA levels less than 2-fold is considered a negative finding, while a change 2-fold is considered a positive finding.
Compounds were tested in a CYP induction assay using inducible cryopreserved human primary hepatocytes from three donors to determine the potential to cause induction (as measured by an increase in mRNA transcription) of CYP2B6. […] At the end of the incubation, the integrity of cell monolayers, cell density and viability were evaluated to assess cytotoxicity effects. […] Samples were then used in reverse transcription polymerase chain reactions (RT-PCR) to quantify the amount of specific mRNA species encoding the human CYP2B6 gene.
The induction potential of test compounds and controls was compared to known CYP2B6 inducer Phenobarbital (1000 μM). The results of this assay are expressed as fold induction. […] The cytotoxicity was also assessed in parallel to avoid false positive CYP induction results due to cytotoxicity. […]

[3] = IV pharmacokinetics in dog; assay type: in vivo, Beagle Dogs
Experimental: as §1, §2

[4] = Cytotoxicity in uninfected MT2 cells, XTT colorimetric assay; assay type: cell-based; settings: human, day 4, XTT
Experimental: Compound cytotoxicity and the corresponding CC50 values were determined using the same protocol as described in the antiviral assay except that uninfected cells were used. Cytotoxicity was assessed on day 4 in uninfected MT2 cells by using an XTT (2,3-bis[2-Methoxy-4-nitro-5-sulfophenyl]-2H-tetrazolium-5-carboxyanilide inner salt)-based colorimetric assay (Sigma-Aldrich, St Louis, Mo).

[5] = Beagle, plasma, Dog, IV 1 mg/kg

## Cn1nc(NS(C)(=O)=O)c2c(Cl)ccc(-n3c([C@H](Cc4cc(F)cc(F)c4)NC(=O)Cn4nc(C(F)F)c5c4C(F)(F)[C@@H]4C[C@H]54)nc4nc(OCCC(F)(F)F)ccc4c3=O)c21 (atropisomer, axis not shown; (P)) [Example 1, N—((S)-1-((3P)-3-(4-chloro-1-methyl-3-(methylsulfonamido)-1H-indazol-7-yl)-4-oxo-7-(3,3,3-trifluoropropoxy)-3,4-dihydropyrido[2,3-d]pyrimidin-2-yl)-2-(3,5-difluorophenyl)ethyl)-2-((3bS,4aR)-3-(difluoromethyl)-5,5-difluoro-3b,4,4a,5-tetrahydro-1H-cyclopropa[3,4]cyclopenta[1,2-c]pyrazol-1-yl)acetamide]
[1]; SC 20 mg/kg
  % of the AUC extrapolated: 2.89%
[1]; SC 20 mg/kg (FIG. 1)
  time drug concentrations were maintained above 7 ng/mL for all animals: 73 days
[1]; Wistar Han, plasma, SC 20 mg/kg
  bioavailability: 93%
[1]; Wistar Han, plasma, SC 20 mg/kg, read-out: apparent half-life of compound in plasma (converted)
  half-life: 312 h
[2]
  clearance: 2.64 mL/min/kg
  half-life: 17.4 h
[2]; read-out: Vss
  Vd: 3.34 L/kg
CYP2B6
  CYP2B6 induction finding (mRNA fold-change method): negative finding (a fold-change in mRNA levels less than 2-fold is considered a negative finding)
[3]; [5]
  clearance: 1.68 mL/min/kg
  half-life: 8.6 h
[3]; Beagle, plasma, Dog, IV 1 mg/kg, read-out: Vss
  Vd: 0.83 L/kg
[3]; dog, IV
  clearance improved relative to Example 60.2: 4.9 fold
  half-life in circulation higher than Example 60.2: 3.4 fold
[4]
  CC50 at 4 days: > 500 nM
